Laboratory results from PubChem BioAssay AID180 (DTP/NCI, 2004).
Several values for one entry are separate records, joined by “and”; a condition that tells them apart may be missing. Identical values can stand only once.

System: BDF1 mice, Adenocarcinoma 755 s.c., tumor weight T/C
Assay: NCI In Vivo Anticancer Drug Screen. Data for tumor model Adenocarcinoma 755 (subcutaneous) in B6D2F1 (BDF1) mice
Settings: endpoint: mean tumor weight, higher = larger tumour
Method: The antitumor activity of compounds was measured in mice bearing transplantable tumors. Survival or tumor size were measured and the results are expressed as the measurement made in the treated group (T) divided by the measurement made in the vehicle treated control group (C). The tumor model used in this assay is Adenocarcinoma 755 (subcutaneous) in B6D2F1 (BDF1) mice

[1] = dose: 25.0 mg/kg/injection, schedule: Q01DX011 (ip), vehicle: saline
[2] = dose: 75.0 mg/kg/injection, schedule: Q01DX011 (ip), vehicle: saline
[3] = dose: 225.0 mg/kg/injection, schedule: Q01DX011 (ip), vehicle: saline
[4] = dose: 50.0 mg/kg/injection, schedule: Q01DX011 (ip), vehicle: carboxymethylcellulose (CMC)

Clc1cccc(CSc2ncnc3c2ncn3C2CCCCO2)c1 (configuration not stated)
T/C (dose: 30.0 mg/kg/injection, schedule: Q01DX011 (ip), vehicle: methylcellulose (MC)): 18 % of control
T/C (dose: 100.0 mg/kg/injection, schedule: Q01DX011 (ip), vehicle: methylcellulose (MC)): 6 % of control

CCCCCCCCOP(=O)(N1CC1)N1CC1
T/C (dose: 0.1 mg/kg/injection, schedule: Q01DX011 (ip), vehicle: saline): 75 % of control and 79 % of control
T/C (dose: 0.2 mg/kg/injection, schedule: Q01DX011 (ip), vehicle: saline): 65 % of control and 80 % of control
T/C (dose: 1.0 mg/kg/injection, schedule: Q01DX011 (ip), vehicle: saline): 29 % of control
T/C (dose: 2.0 mg/kg/injection, schedule: Q01DX011 (ip), vehicle: saline): 57 % of control and 66 % of control
T/C (dose: 4.5 mg/kg/injection, schedule: Q01DX011 (ip), vehicle: saline): 56 % of control and 66 % of control

CC1CCN2CCC(O)C12 (configuration not stated)
T/C (dose: 7.0 mg/kg/injection, schedule: Q01DX011 (ip), vehicle: carboxymethylcellulose (CMC)): 98 % of control

Cc1ccc(S(=O)(=O)NCCCCC(Nc2ncnc3nc[nH]c23)C(=O)O)cc1 (configuration not stated)
T/C [1]: 81 % of control
T/C [2]: 21 % of control
T/C [3]: 4 % of control

CCOC(=O)CCCc1ccc(N=NN(C)C(C)CC)cc1 (configuration not stated)
T/C (dose: 62.0 mg/kg/injection, schedule: Q01DX011 (ip), vehicle: carboxymethylcellulose (CMC)): 64 % of control
T/C (dose: 125.0 mg/kg/injection, schedule: Q01DX011 (ip), vehicle: carboxymethylcellulose (CMC)): 71 % of control
T/C (dose: 250.0 mg/kg/injection, schedule: Q01DX011 (ip), vehicle: carboxymethylcellulose (CMC)): 14 % of control

Nc1nc(N)c2[nH]cnc2n1
T/C (dose: 17.49 mg/kg/injection, schedule: Q01DX011 (ip), vehicle: carboxymethylcellulose (CMC)): 94 % of control
T/C (dose: 17.62 mg/kg/injection, schedule: Q01DX011 (ip), vehicle: carboxymethylcellulose (CMC)): 114 % of control
T/C (dose: 34.98 mg/kg/injection, schedule: Q01DX011 (ip), vehicle: carboxymethylcellulose (CMC)): 93 % of control
T/C (dose: 35.25 mg/kg/injection, schedule: Q01DX011 (ip), vehicle: carboxymethylcellulose (CMC)): 91 % of control
T/C (dose: 69.95 mg/kg/injection, schedule: Q01DX011 (ip), vehicle: carboxymethylcellulose (CMC)): 103 % of control
T/C (dose: 70.5 mg/kg/injection, schedule: Q01DX011 (ip), vehicle: carboxymethylcellulose (CMC)): 108 % of control
T/C (dose: 141.0 mg/kg/injection, schedule: Q01DX011 (ip), vehicle: carboxymethylcellulose (CMC)): 47 % of control

Cn1cnc2c(ncn2C2OC(CO)C(O)C2O)c1=N (configuration not stated)
T/C (dose: 30.0 mg/kg/injection, schedule: Q01DX011 (ip), vehicle: saline): 118 % of control
T/C (dose: 120.0 mg/kg/injection, schedule: Q01DX011 (ip), vehicle: saline): 47 % of control
T/C (dose: 240.0 mg/kg/injection, schedule: Q01DX011 (ip), vehicle: saline): 74 % of control

Cc1nc2nncn2c(=O)[nH]1
T/C [1]: 67 % of control
T/C [2]: 101 % of control
T/C [3]: 84 % of control

Nc1nc(SCc2ccc(F)cc2)c2ncn(C3OC(CO)C(O)C3O)c2n1 (configuration not stated)
T/C (dose: 3.1 mg/kg/injection, schedule: Q01DX011 (ip), vehicle: methylcellulose (MC)): 86 % of control
T/C (dose: 6.2 mg/kg/injection, schedule: Q01DX011 (ip), vehicle: methylcellulose (MC)): 59 % of control
T/C (dose: 12.5 mg/kg/injection, schedule: Q01DX011 (ip), vehicle: methylcellulose (MC)): 19 % of control
T/C (dose: 25.0 mg/kg/injection, schedule: Q01DX011 (ip), vehicle: methylcellulose (MC)): 11 % of control

CC(C)n1cnc2c(=S)nc[nH]c21
T/C (dose: 0.2 mg/kg/injection, schedule: Q01DX011 (ip), vehicle: carboxymethylcellulose (CMC)): 114 % of control
T/C (dose: 0.39 mg/kg/injection, schedule: Q01DX011 (ip), vehicle: carboxymethylcellulose (CMC)): 67 % of control
T/C (dose: 0.45 mg/kg/injection, schedule: Q01DX011 (ip), vehicle: carboxymethylcellulose (CMC)): 63 % of control
T/C (dose: 0.78 mg/kg/injection, schedule: Q01DX011 (ip), vehicle: carboxymethylcellulose (CMC)): 111 % of control
T/C (dose: 0.9 mg/kg/injection, schedule: Q01DX011 (ip), vehicle: carboxymethylcellulose (CMC)): 62 % of control
T/C (dose: 0.9 mg/kg/injection, schedule: Q01DX011 (oral), vehicle: carboxymethylcellulose (CMC)): 52 % of control
T/C (dose: 1.56 mg/kg/injection, schedule: Q01DX011 (ip), vehicle: carboxymethylcellulose (CMC)): 50 % of control
T/C (dose: 1.8 mg/kg/injection, schedule: Q01DX011 (ip), vehicle: carboxymethylcellulose (CMC)): 15 % of control
T/C (dose: 1.8 mg/kg/injection, schedule: Q01DX011 (oral), vehicle: carboxymethylcellulose (CMC)): 11 % of control
T/C (dose: 3.12 mg/kg/injection, schedule: Q01DX011 (ip), vehicle: carboxymethylcellulose (CMC)): 9 % of control
T/C (dose: 3.6 mg/kg/injection, schedule: Q01DX011 (ip), vehicle: carboxymethylcellulose (CMC)): 1 % of control
T/C (dose: 3.6 mg/kg/injection, schedule: Q01DX011 (oral), vehicle: carboxymethylcellulose (CMC)): 5 % of control
T/C (dose: 3.62 mg/kg/injection, schedule: Q01DX011 (ip), vehicle: carboxymethylcellulose (CMC)): 7 % of control and 14 % of control
T/C (dose: 6.25 mg/kg/injection, schedule: Q01DX011 (ip), vehicle: carboxymethylcellulose (CMC)): 6 % of control
T/C (dose: 7.25 mg/kg/injection, schedule: Q01DX011 (ip), vehicle: carboxymethylcellulose (CMC)): 3 % of control and 6 % of control
T/C (dose: 7.25 mg/kg/injection, schedule: Q01DX011 (oral), vehicle: carboxymethylcellulose (CMC)): 11 % of control
T/C (dose: 12.5 mg/kg/injection, schedule: Q01DX011 (ip), vehicle: carboxymethylcellulose (CMC)): 3 % of control
T/C (dose: 14.5 mg/kg/injection, schedule: Q01DX011 (ip), vehicle: carboxymethylcellulose (CMC)): 1 % of control
T/C (dose: 25.0 mg/kg/injection, schedule: Q01DX011 (ip), vehicle: carboxymethylcellulose (CMC)): 8 % of control
T/C (dose: 29.0 mg/kg/injection, schedule: Q01DX011 (oral), vehicle: carboxymethylcellulose (CMC)): 2 % of control
T/C [4]: 3 % of control and 6 % of control

CCCCNC(=O)c1n[se]nc1NC(N)=O
T/C (dose: 4.0 mg/kg/injection, schedule: Q01DX011 (ip), vehicle: carboxymethylcellulose (CMC)): 94 % of control
T/C (dose: 8.0 mg/kg/injection, schedule: Q01DX011 (ip), vehicle: carboxymethylcellulose (CMC)): 91 % of control
T/C (dose: 16.0 mg/kg/injection, schedule: Q01DX011 (ip), vehicle: carboxymethylcellulose (CMC)): 61 % of control
T/C (dose: 37.5 mg/kg/injection, schedule: Q01DX011 (ip), vehicle: carboxymethylcellulose (CMC)): 166 % of control
T/C [4]: 119 % of control

Nc1ncnc2c1cnn2C1CCCCO1 (configuration not stated)
T/C (dose: 1.75 mg/kg/injection, schedule: Q01DX011 (ip), vehicle: methylcellulose (MC)): 74 % of control
T/C (dose: 3.5 mg/kg/injection, schedule: Q01DX011 (ip), vehicle: methylcellulose (MC)): 50 % of control
T/C (dose: 7.0 mg/kg/injection, schedule: Q01DX011 (ip), vehicle: methylcellulose (MC)): 21 % of control
T/C (dose: 14.0 mg/kg/injection, schedule: Q01DX011 (ip), vehicle: methylcellulose (MC)): 1 % of control

O=NN1CCN(N=O)CC1
T/C (dose: 6.21 mg/kg/injection, schedule: Q01DX011 (ip), vehicle: carboxymethylcellulose (CMC)): 76 % of control
T/C (dose: 7.36 mg/kg/injection, schedule: Q01DX011 (ip), vehicle: carboxymethylcellulose (CMC)): 69 % of control
T/C (dose: 11.75 mg/kg/injection, schedule: Q01DX011 (ip), vehicle: carboxymethylcellulose (CMC)): 98 % of control and 78 % of control
T/C (dose: 12.43 mg/kg/injection, schedule: Q01DX011 (ip), vehicle: carboxymethylcellulose (CMC)): 85 % of control
T/C (dose: 14.72 mg/kg/injection, schedule: Q01DX011 (ip), vehicle: carboxymethylcellulose (CMC)): 101 % of control
T/C (dose: 18.8 mg/kg/injection, schedule: Q01DX011 (ip), vehicle: carboxymethylcellulose (CMC)): 157 % of control
T/C (dose: 23.5 mg/kg/injection, schedule: Q01DX011 (ip), vehicle: carboxymethylcellulose (CMC)): 69 % of control and 83 % of control
T/C (dose: 23.56 mg/kg/injection, schedule: Q01DX011 (ip), vehicle: carboxymethylcellulose (CMC)): 88 % of control
T/C (dose: 24.85 mg/kg/injection, schedule: Q01DX011 (ip), vehicle: carboxymethylcellulose (CMC)): 56 % of control
T/C (dose: 29.45 mg/kg/injection, schedule: Q01DX011 (ip), vehicle: carboxymethylcellulose (CMC)): 99 % of control and 100 % of control
T/C (dose: 31.33 mg/kg/injection, schedule: Q01DX011 (ip), vehicle: carboxymethylcellulose (CMC)): 57 % of control
T/C (dose: 39.26 mg/kg/injection, schedule: Q01DX011 (ip), vehicle: carboxymethylcellulose (CMC)): 67 % of control
T/C (dose: 40.0 mg/kg/injection, schedule: Q01DX011 (ip), vehicle: carboxymethylcellulose (CMC)): 99 % of control
T/C (dose: 45.0 mg/kg/injection, schedule: Q01DX011 (ip), vehicle: carboxymethylcellulose (CMC)): 100 % of control
T/C [4]: 86 % of control
T/C (dose: 55.0 mg/kg/injection, schedule: Q01DX011 (ip), vehicle: carboxymethylcellulose (CMC)): 102 % of control
